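Test compounds were applied to cells in 96-well plates for 48 hours at 5 doses. At the TGI there is no net growth.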
How the values were obtained:
Experiment in all cases: inhibition of tumour cell growth, NCI panel, 48 h
[1] = system: LOX IMVI melanoma
[2] = system: DU-145 prostate
[3] = system: M14 melanoma
[4] = system: SK-MEL-28 melanoma
[5] = system: MCF7 breast
[6] = system: COLO 205 colon
[7] = system: SK-MEL-2 melanoma
[8] = system: UACC-257 melanoma
[9] = system: K-562 leukemia
[10] = system: RPMI-8226 leukemia
[11] = system: KM12 colon
[12] = system: OVCAR-3 ovarian
[13] = system: UO-31 renal
[14] = system: NCI/ADR-RES ovarian
[15] = system: MDA-MB-231 breast
[16] = system: HCC-2998 colon
[17] = system: HOP-62 NSCLC
[18] = system: SK-MEL-5 melanoma
[19] = system: PC-3 prostate
[20] = system: RXF 393 renal
[21] = system: SR leukemia
[22] = system: MALME-3M melanoma
[23] = system: NCI-H522 lung
[24] = system: U251 CNS
[25] = system: NCI-H460 lung
[26] = system: SF-295 CNS
[27] = system: EKVX NSCLC
[28] = system: T-47D breast
[29] = system: SNB-19 CNS
[30] = system: A549 NSCLC
[31] = system: TK-10 renal
[32] = system: HT29 colon
[33] = system: BT-549 breast
[34] = system: NCI-H23 lung
[35] = system: NCI-H226 lung
[36] = system: A498 renal
[37] = system: IGROV1 ovarian
[38] = system: HOP-92 NSCLC
[39] = system: SNB-75 CNS
[40] = system: SK-OV-3 ovarian
[41] = system: MOLT-4 leukemia
[42] = system: MDA-N
[43] = system: CAKI-1 renal
[44] = system: OVCAR-4 ovarian
[45] = system: 786-0 renal
[46] = system: UACC-62 melanoma
[47] = system: MDA-MB-435
[48] = system: SW-620 colon
[49] = system: HCT-15 colon
[50] = system: OVCAR-5 ovarian
[51] = system: ACHN renal
[52] = system: SF-268 CNS
[53] = system: OVCAR-8 ovarian
[54] = system: SN12C renal
[55] = system: HCT-116 colon
[56] = system: HL-60(TB) leukemia
[57] = system: SF-539 CNS
[58] = system: HS 578T breast
[59] = system: CCRF-CEM leukemia

Measured: TGI

O=C1Nc2ccc(Cl)cc2C(=O)N2CCC[C@@H]12
> 100 µM: [1] | [2] | [3] | [4] | [5] | [6] | [7] | [8] | [9] | [10] | [11] | [12] | [13] | [14] | [15] | [16] | [17] | [18] | [19] | [20] | [21] | [22] | [23] | [24] | [25] | [26] | [27] | [28] | [29] | [30] | [31] | [32] | [33] | [34] | [35] | [36] | [37] | [38] | [39] | [40] | [41] | [42] | [43] | [44] | [45] | [46] | [47] | [48] | [49] | [50] | [51] | [52] | [53] | [54] | [55]

O=C(CC(C(=O)c1ccc(F)cc1)c1ccsc1)c1cccs1 (stereo unspecified)
89.7 µM: [41]
> 100 µM: [2] | [3] | [4] | [5] | [6] | [7] | [8] | [9] | [10] | [11] | [13] | [56] | [14] | [15] | [16] | [17] | [18] | [57] | [19] | [58] | [21] | [22] | [24] | [25] | [26] | [27] | [28] | [29] | [30] | [59] | [31] | [32] | [34] | [35] | [36] | [37] | [39] | [40] | [42] | [43] | [44] | [45] | [46] | [47] | [48] | [49] | [50] | [51] | [52] | [53] | [54] | [55]

CCOc1ccccc1N1CSc2nnc(-c3ccccc3)n2C1
> 100 µM: [2] | [3] | [4] | [5] | [6] | [7] | [8] | [9] | [10] | [11] | [12] | [13] | [14] | [15] | [16] | [17] | [18] | [57] | [19] | [20] | [21] | [22] | [23] | [24] | [25] | [26] | [28] | [30] | [31] | [32] | [33] | [34] | [35] | [36] | [37] | [38] | [40] | [41] | [42] | [43] | [44] | [45] | [46] | [47] | [48] | [49] | [50] | [51] | [52] | [53] | [54] | [55]
49.9 µM: [59]

O=[N+]([O-])C(=C1NCCN1)C(Cl)=C(Cl)Cl
> 100 µM: [1] | [2] | [3] | [4] | [5] | [6] | [7] | [8] | [9] | [10] | [11] | [12] | [13] | [56] | [14] | [15] | [16] | [17] | [18] | [57] | [19] | [58] | [20] | [21] | [22] | [23] | [24] | [25] | [26] | [27] | [28] | [29] | [30] | [59] | [31] | [32] | [34] | [35] | [36] | [37] | [40] | [41] | [42] | [43] | [44] | [45] | [46] | [47] | [49] | [50] | [51] | [52] | [53] | [54] | [55]

S=C1C(=Nc2ccccc2)N(C2CCCCC2)C(=NC2CCCCC2)N1c1ccccc1
71.8 µM: [23]
> 100 µM: [1] | [2] | [4] | [6] | [7] | [8] | [9] | [10] | [11] | [13] | [56] | [14] | [15] | [16] | [17] | [18] | [57] | [19] | [58] | [20] | [21] | [22] | [24] | [25] | [26] | [27] | [28] | [29] | [30] | [59] | [31] | [32] | [34] | [35] | [36] | [37] | [38] | [39] | [40] | [41] | [42] | [43] | [44] | [45] | [46] | [47] | [48] | [49] | [50] | [51] | [52] | [53] | [54] | [55]

Source: PubChem BioAssay (NCI)
